Source: US7659244B2, “Rapamycin peptides conjugates: synthesis and uses thereof” (Quest Pharmatech, Inc., priority 2004, dated 2010)
Where two headings read alike, the source gives them in different places.

Key:
[1] = read-out: Inhibition of H^3 Thymidine uptake (IC50 in nM), LS174T cells, 96 hours incubation
[2] = read-out: Inhibition of H^3 Thymidine uptake (IC50 in nM), Lncap cells, 96 hours incubation
[3] = read-out: Inhibition of H^3 Thymidine uptake (IC50 in nM), MCF-7 cells, 96 hours incubation
[4] = read-out: Inhibition of H^3 Thymidine uptake (IC50 in nM), SKMEL-2 cells, 96 hours incubation
[5] = read-out: Inhibition of H^3 Thymidine uptake (IC50 in nM), D341 cells, 96 hours incubation
[6] = read-out: Inhibition of H^3 Thymidine uptake (IC50 in nM), OVCAR-3 cells, 96 hours incubation
[7] = read-out: Inhibition of H^3 Thymidine uptake (IC50 in nM), SK-N-SH cells, 96 hours incubation
[8] = read-out: Inhibition of H^3 Thymidine uptake (IC50 in nM), A431 cells, 96 hours incubation
[9] = read-out: Inhibition of H^3 Thymidine uptake (IC50 in nM), SKOV-3 cells, 96 hours incubation

Molecule	IC50 (LS174T; 96 h)	IC50 (Lncap; 96 h)	IC50 (MCF-7; 96 h)	IC50 (SKMEL-2; 96 h)	IC50 (D341; 96 h)	IC50 (OVCAR-3; 96 h)	IC50 (SK-N-SH; 96 h)	IC50 (A431; 96 h)	IC50 (SKOV-3; 96 h)	IC50 (LS174T; [1])	IC50 (Lncap; [2])	IC50 (MCF-7; [3])	IC50 (SKMEL-2; [4])	IC50 (D341; [5])	IC50 (OVCAR-3; [6])	IC50 (SK-N-SH; [7])	IC50 (A431; [8])	IC50 (SKOV-3; [9])
CC[C@H](C)[C@H](NC(=O)[C@H](CC(C)C)NC(=O)[C@H](C)NC(=O)[C@H](Cc1cn(C(c2ccccc2)(c2ccccc2)c2ccccc2)cn1)NC(=O)O[C@@H]1CC[C@@H](C[C@@H](C)[C@@H]2CC(=O)[C@H](C)/C=C(\C)[C@@H](O)[C@@H](OC)C(=O)[C@H](C)C[C@H](C)/C=C/C=C/C=C(\C)[C@@H](OC)C[C@@H]3CC[C@@H](C)[C@@](O)(O3)C(=O)C(=O)N3CCCC[C@H]3C(=O)O2)C[C@H]1OC)C(=O)N[C@@H](CO)Cc1ccccc1 [Compound 7h]	777 nM	374 nM	85.5 nM	416 nM	405 nM	375 nM	223 nM	2370 nM	155 nM									
CO[C@H]1C[C@@H]2CC[C@@H](C)[C@@](O)(O2)C(=O)C(=O)N2CCCC[C@H]2C(=O)O[C@H]([C@H](C)C[C@@H]2CC[C@@H](OC(=O)N[C@@H](CO)[C@@H](O)c3ccccc3)[C@H](OC)C2)CC(=O)[C@H](C)/C=C(\C)[C@@H](O)[C@@H](OC)C(=O)[C@H](C)C[C@H](C)/C=C/C=C/C=C/1C [Compound 7l, Rapamycin-42-O-ester-(1S,2S)-(+)-2-amino-1-phenyl-1,3-propandiol]										23500 nM	64.6 nM	6.35 nM	29.1 nM	27.6 nM	113 nM	15.6 nM	217 nM	17.1 nM
CCC(C)C(CO)NC(=O)O[C@@H]1CC[C@@H](C[C@@H](C)[C@@H]2CC(=O)[C@H](C)/C=C(\C)[C@@H](O)[C@@H](OC)C(=O)[C@H](C)C[C@H](C)/C=C/C=C/C=C(\C)[C@@H](OC)C[C@@H]3CC[C@@H](C)[C@@](O)(O3)C(=O)C(=O)N3CCCC[C@H]3C(=O)O2)C[C@H]1OC (stereo partly drawn) [Compound 7m, Rapamycin-42-O-ester-2-amino-3-methyl-1-pentanol]										664 nM	136 nM	31.3 nM	147 nM	86.8 nM	488 nM	56.7 nM	626 nM	69.1 nM
CO[C@H]1C[C@@H]2CC[C@@H](C)[C@@](O)(O2)C(=O)C(=O)N2CCCC[C@H]2C(=O)O[C@H]([C@H](C)C[C@@H]2CC[C@@H](OC(=O)NCC(O)CO)[C@H](OC)C2)CC(=O)[C@H](C)/C=C(\C)[C@@H](O)[C@@H](OC)C(=O)[C@H](C)C[C@H](C)/C=C/C=C/C=C/1C (stereo partly drawn) [Compound 7n, Rapamycin-42-O-ester-3-amino-1,2-propanediol]										55100 nM	42.7 nM	2.53 nM	11.7 nM	14.7 nM	71.9 nM	7.27 nM	314 nM	7.96 nM
CO[C@H]1C[C@@H]2CC[C@@H](C)[C@@](O)(O2)C(=O)C(=O)N2CCCC[C@H]2C(=O)O[C@H]([C@H](C)C[C@@H]2CC[C@@H](OC(=O)NC(CO)CO)[C@H](OC)C2)CC(=O)[C@H](C)/C=C(\C)[C@@H](O)[C@@H](OC)C(=O)[C@H](C)C[C@H](C)/C=C/C=C/C=C/1C [Compound 7o, Rapamycin-42-O-ester-2-amino-1,3-propanediol]										1030 nM	39.6 nM	2.58 nM	48.3 nM	36.2 nM	80.7 nM	5.84 nM	150 nM	27.4 nM
CO[C@H]1C[C@@H]2CC[C@@H](C)[C@@](O)(O2)C(=O)C(=O)N2CCCC[C@H]2C(=O)O[C@H]([C@H](C)C[C@@H]2CC[C@@H](OC(=O)NC(C)(CO)CO)[C@H](OC)C2)CC(=O)[C@H](C)/C=C(\C)[C@@H](O)[C@@H](OC)C(=O)[C@H](C)C[C@H](C)/C=C/C=C/C=C/1C [Compound 7p, Rapamycin-42-O-ester-2-amino-2-methyl-1,3-propanediol]										2310 nM	7.12 nM	1.17 nM	17.7 nM	10.2 nM	79.3 nM	7.19 nM	254 nM	8.8 nM
CO[C@H]1C[C@@H]2CC[C@@H](C)[C@@](O)(O2)C(=O)C(=O)N2CCCC[C@H]2C(=O)O[C@H]([C@H](C)C[C@@H]2CC[C@@H](OC(=O)N[C@@H](CO)[C@H](C)O)[C@H](OC)C2)CC(=O)[C@H](C)/C=C(\C)[C@@H](O)[C@@H](OC)C(=O)[C@H](C)C[C@H](C)/C=C/C=C/C=C/1C [Compound 7q, Rapamycin-42-O-ester-(2S,3S)-2-amino-1,3-butanediol]										1630 nM	17.4 nM	1.29 nM	9.15 nM	25.2 nM	56.5 nM	5.25 nM	313 nM	6.35 nM
CO[C@H]1C[C@@H]2CC[C@@H](C)[C@@](O)(O2)C(=O)C(=O)N2CCCC[C@H]2C(=O)O[C@H]([C@H](C)C[C@@H]2CC[C@@H](OC(=O)N[C@H](CO)[C@@H](C)O)[C@H](OC)C2)CC(=O)[C@H](C)/C=C(\C)[C@@H](O)[C@@H](OC)C(=O)[C@H](C)C[C@H](C)/C=C/C=C/C=C/1C [Compound 7r, Rapamycin-42-O-ester-(2R,3R)-2-amino-1,3-butanediol]										1410 nM	21.8 nM	1.86 nM	8.32 nM	5.5 nM	47.2 nM	4.84 nM	191 nM	6.44 nM
COC1CC2CCC(C)C(O)(O2)C(=O)C(=O)N2CCCCC2C(=O)OC(C(C)CC2CCC(OC(=O)NC(CO)CC(C)C)C(OC)C2)CC(=O)C(C)C=C(C)C(O)C(OC)C(=O)C(C)CC(C)C=CC=CC=C1C [Compound 7t, Rapamycin-42-O-ester-(S)-(+)-2-amino-4-methyl pentanol]										24000 nM	202 nM	53.3 nM	73.2 nM	61.2 nM	367 nM	99.3 nM	278 nM	64.1 nM
CO[C@H]1C[C@@H]2CC[C@@H](C)[C@@](O)(O2)C(=O)C(=O)N2CCCC[C@H]2C(=O)O[C@H]([C@H](C)C[C@@H]2CC[C@@H](OC(=O)NC(CO)(CO)CO)[C@H](OC)C2)CC(=O)[C@H](C)/C=C(\C)[C@@H](O)[C@@H](OC)C(=O)[C@H](C)C[C@H](C)/C=C/C=C/C=C/1C [Compound 7u, Rapamycin-42-O-ester-Tris(hydroxymethyl)amino methane]										1590 nM	14 nM	1.54 nM	6.15 nM	20.8 nM	56.6 nM	6.4 nM	282 nM	8.08 nM
Rapamycin-42-O-ester-(R) (+)-2-amino-3-phenyl-1-propanol [Compound 7k]										1380 nM	146 nM	15.9 nM	109 nM	259 nM	296 nM	71.3 nM	550 nM	66 nM
